# How the values were obtained:
# Format in all cases: cell-based
# [1] = test system: E. faecalis ATCC 29212; assay: Biofilm inhibition, crystal violet staining (MBIC50); conditions: double-dilution method; Table 1; read-out: MBIC50, strain D
# Experimental: (§1) Analysis of biofilm inhibition. The assay was performed as previously described (Joseph et al., 2016; Feldman et al., 2012) with minor modifications. […] Next, 100 μL of serial 1:2 dilutions of compounds in TSB+1% glucose (32, 16, 8, 4, 2, 1, and 0.5 μg/mL) were prepared in flat-bottomed 96-well microplates (Costar, Corning). Control wells with no compounds and wells without bacteria containing each tested concentration of the compounds (blanks) were also prepared. An equal volume (100 μL) of bacterial suspensions diluted 1:100 (OD600=0.01) or 1:10 (OD600=0.1) in TSB+1% glucose was added to each well. […] The wells were vigorously rinsed at least four times with doubly distilled water (DDW). Next, 0.4% crystal violet (200 μL) was added to each well. After 45 min, wells were vigorously rinsed three times with DDW to remove unbound dye. After adding 200 μL of 30% acetic acid to each well, the plate was shaken for 15 min to release the dye. Biofilm formation was quantified by measuring the difference between absorbance of untreated and treated bacterial samples for each tested concentration of the compounds and the absorbance of appropriate blank well at 600 nm (A600) using Tecan plate reader. The MBIC50 was defined as the lowest concentration at which at least 50% reduction in biofilm formation was measured compared to untreated cells. Each concentration of compound was tested in five replicates, and three to six independent experiments were performed.
# [2] = test system: S. aureus ATCC 29213; assay: as above; conditions: double-dilution method; Table 1; read-out: MBIC50, strain B
# Experimental: as §1
# [3] = test system: S. aureus BAA/043; assay: as above; conditions: double-dilution method; Table 1; read-out: MBIC50, strain C
# Experimental: as §1
# [4] = test system: S. aureus subsp. aureus Rosenbach ATCC 33592 (MRSA); assay: as above; conditions: double-dilution method; Table 1; read-out: MBIC50, strain A
# Experimental: as §1
# [5] = test system: S. epidermidis RP62A; assay: as above; conditions: double-dilution method; Table 1; read-out: MBIC50, strain E
# Experimental: as §1
# [6] = test system: S. mutans ATCC 700610; assay: as above; conditions: double-dilution method; Table 1; read-out: MBIC50, strain F
# Experimental: as §1
# [7] = test system: tested biofilm-forming Gram-positive pathogens; assay: Biofilm inhibition, statements over all tested strains; conditions: highest concentration tested
# Experimental: as §1, with “Each concentration of compound was tested in five replicates, and three to six independent experiments were performed.” left out
# [8] = test system: mature biofilms; assay: Biofilm eradication; conditions: mature 24-h-old biofilms
# Experimental: Analysis of biofilm eradication. Biofilm eradication activity of the tested compounds determined against mature 24-h-old biofilms was performed as previously described (Pompilio et al., 2015). […] Untreated biofilm samples were used as control. Biofilms were quantified by measuring the absorbance at 600 nm. […] Concentrations were tested in five replicates, and three independent experiments were performed.
Compound,IC50 [1] [µM],IC50 [2] [µM],IC50 [3] [µM],IC50 [4] [µM],IC50 [5] [µM],IC50 [6] [µM],Biofilm formation: no inhibition up to (concentration) [7] [µM],Eradication of mature biofilms [8]
"C[N+](C)(C)C.[Br-] [TMA—Br, tetramethylammonium bromide]",> 208,> 208,> 208,> 208,> 208,> 208,> 292,
"C[N+](C)(C)C.[Cl-] [TMA—Cl, tetramethylammonium chloride]",> 292,> 292,> 292,> 292,> 292,> 292,> 208,
deca-N-methyl-imidazolium pillar[5]arene [Compound 22],0.4,1.6,1.6,0.8,3.2,6.4,,
deca-trimethylammonium pillar[5]arene [Compound 21],0.9,3.5,3.5,0.9,3.5,1.8,,did not eradicate mature biofilms

# From patent US12398092B2, “Method for inhibiting or disrupting biofilm formation, or reducing biofilm” (RAMOT AT TEL-AVIV UNIVERSITY LTD., priority 2015, dated 2025)
